Test results published in PMC11873722 (Cancer Discovery, 2024).

What was measured:
[1] = target: RAF1(RBD):KRAS^G12C(ON) interaction in MIA PaCa-2 cells (Homo sapiens, UniProt P01116, G12C); experiment: RAS:RAF ELISA assay in MIA PaCa-2 cells; format: cell-based; settings: 1 µmol/L
[2] = test system: KRAS^G12C NSCLC; settings: patients with NSCLC with prior KRAS^G12C(OFF)-only inhibitor treatment; cited from earlier work
[3] = Free drug exposure in LUN055 PDX study; format: in vivo, mouse

RAF1(RBD):KRAS^G12C(ON) interaction in MIA PaCa-2 cells, sequence (P01116 1-188 isoform P01116-2 G12C): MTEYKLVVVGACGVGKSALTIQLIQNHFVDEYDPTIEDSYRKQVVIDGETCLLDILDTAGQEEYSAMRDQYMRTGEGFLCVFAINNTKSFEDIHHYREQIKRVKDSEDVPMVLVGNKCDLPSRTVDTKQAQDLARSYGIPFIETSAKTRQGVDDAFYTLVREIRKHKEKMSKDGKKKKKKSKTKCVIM

C=CC(=O)N1CCN(c2nc(OC[C@@H]3CCCN3C)nc3c(F)c(-c4nc(N)cc(C)c4C(F)(F)F)c(Cl)cc23)[C@@H](C)C1 [GDC-6036]
time required to achieve maximal activity [1]: more than 60 minutes

CCn1c(-c2cccnc2[C@H](C)OC)c2c3cc(ccc31)N1CCO[C@@H](C[C@H](NC(=O)[C@H](C(C)C)N(C)C(=O)C3(F)CCN(C(=O)C#CC(C)(C)N(C)C)CC3)C(=O)N3CCC[C@H](N3)C(=O)OCC(C)(C)C2)C1 [RMC-6291]
objective response rate [2]: 50%

C=CC(=O)N1CCN(c2nc(=O)n(-c3c(C)ccnc3C(C)C)c3nc(-c4c(O)cccc4F)c(F)cc23)[C@@H](C)C1 [Sotorasib]
free AUC0–24 hours ([3]; 100 mg/kg sotorasib): 1,563 hours × ng/mL
free drug concentration higher compared with BBO-8520 ([3]; 100 mg/kg sotorasib vs 30 mg/kg BBO-8520): 20 fold
